{"source": "paper PMC9237417", "about": "“HupZ, a Unique Heme-Binding Protein, Enhances Group A Streptococcus Fitness During Mucosal Colonization” (Frontiers in Cellular and Infection Microbiology, 2022)", "key": {"[1]": {"biological_target": "T1, tag-less HupZ (Streptococcus pyogenes, UniProt Q9A0B9)", "T1 construct": "gene SPy_0844; full-length HupZ from His-MBP-HupZ, tag cut by TEV protease leaving a serine residue; expressed in E. coli; 15 kD on SDS-PAGE", "T1 sequence (Q9A0B9 entry or part of it)": "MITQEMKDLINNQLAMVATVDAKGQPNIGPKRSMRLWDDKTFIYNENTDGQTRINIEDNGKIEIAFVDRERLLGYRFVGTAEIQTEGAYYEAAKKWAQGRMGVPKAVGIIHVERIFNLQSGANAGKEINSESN", "assay": "UV-VIS Soret shift of heme-loaded protein", "format": "binding", "conditions": "holo protein (heme b bound); 1.6 mM imidazole as axial ligand of the heme iron; pH 7.4"}, "[2]": {"biological_target": "T2, MBP-HupZ (Streptococcus pyogenes, UniProt Q9A0B9)", "T2 construct": "gene SPy_0844; N-terminal MBP fusion kept (pKV135); E. coli BL21(DE3); monomer on native PAGE", "T2 sequence (Q9A0B9 entry or part of it)": "as above", "assay": "UV-VIS Soret shift of heme-loaded protein", "format": "binding", "conditions": "holo protein (heme b bound); 1.6 mM imidazole as axial ligand of the heme iron; pH 7.4"}}}
{"smiles": "c1c[nH]cn1", "note": "[imidazole]", "values": [{"measurement": "UV-VIS Soret shift of heme-loaded protein", "setting": "[1]", "result": "exogenous imidazole can coordinate the iron in holo tag-less and MBP-HupZ"}, {"measurement": "UV-VIS Soret shift of heme-loaded protein", "setting": "[2]", "result": "exogenous imidazole can coordinate the iron in holo tag-less and MBP-HupZ"}]}
